Entries after “also recorded” stand apart in the source; their conditions may differ.
Columns and labels:
human HDAC8 = molecular target: T1, human HDAC8 (Homo sapiens, UniProt Q9BY41); assay: HDAC8 inhibitor enzymatic assay, % inhibition at fixed concentration; assay type: biochemical; settings: read-out: %inhibition of HDACs at 10µM of test compound HDAC8; 10 µM compound
T1 construct: purchased BPS Bioscience 50008
T1 sequence (Q9BY41 1-377): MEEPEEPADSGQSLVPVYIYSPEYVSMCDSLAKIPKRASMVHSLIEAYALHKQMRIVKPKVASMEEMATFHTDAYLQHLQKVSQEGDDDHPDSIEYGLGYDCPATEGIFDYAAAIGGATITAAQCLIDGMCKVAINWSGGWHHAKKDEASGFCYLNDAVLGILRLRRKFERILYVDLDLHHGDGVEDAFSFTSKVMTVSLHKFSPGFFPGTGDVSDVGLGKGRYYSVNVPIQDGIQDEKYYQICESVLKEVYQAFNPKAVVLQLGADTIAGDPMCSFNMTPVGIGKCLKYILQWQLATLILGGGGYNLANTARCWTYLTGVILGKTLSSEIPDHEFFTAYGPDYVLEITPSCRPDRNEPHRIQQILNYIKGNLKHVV

[1] = tested on: acetylated α-tubulin in CCHE-45 cells; assay: Western blot analysis of acetylated α-tubulin in CCHE-45 cells; assay type: cell-based; settings: 100 µM, 24 h
Protocol: CCHE-45 cells were treated with 100 µM of test compound for 24 h. HL60 cell line (a kind gift from Professor Azza Kamel from the National Cancer Institute, Cairo University); and is cultured in RPMI-1640 (Lonza, BE-12-702F) supplemented with 10% Fetal Bovine Serum (FBS, Gibco, 12483–020) and 100 U/ml penicillin and 100 µg/ml streptomycin (Lonza, DE17-602F), has also been treated with different concentrations of 10a in twofold serial dilutions for 24 h. Proteins were extracted from CCHE-45 cells using RIPA Lysis and Extraction Buffer (ThermoScientific, cat. No: 89901) containing 100x Halt Protease and […] Inhibitor Cocktail (ThermoScientific, cat. No. 78444). Followed by protein quantification using Bradford Reagent (Pierce Coomassie Plus (Bradford) Assay Reagent) (ThermoScientific, cat. No. 23238). A total of 50 µg proteins were loaded on a 10% SDS page using 30% Acrylamide/Bisacrylamide 19:1(Serva, cat. No. 10679.01) then transferred by semidry transfer method using Bio-Rad Trans-Blot Turbo transfer system on PVDF Transfer Membrane (ThermoScientific, cat. No. 88518). The membranes were incubated overnight at 4 °C in the primary antibodies Mouse monoclonal Anti-Beta Actin antibody (1:100, abcam, ab8224) and Mouse monoclonal Anti-acetylated α Tubulin (1:200, Santa Cruz Biotechnology, sc-23950). […]

human HDAC5 = human HDAC5 (Homo sapiens, UniProt Q9UQL6); assay: HDAC5 inhibitor enzymatic assay, % inhibition at fixed concentration; settings: read-out: %inhibition of HDACs at 10µM of test compound HDAC5
human HDAC10 = molecular target: T2, human HDAC10 (Homo sapiens, UniProt Q969S8); assay: HDAC10 inhibitor enzymatic assay, % inhibition at fixed concentration; settings: read-out: %inhibition of HDACs at 10µM of test compound HDAC10
T2 sequence (Q969S8 1-669): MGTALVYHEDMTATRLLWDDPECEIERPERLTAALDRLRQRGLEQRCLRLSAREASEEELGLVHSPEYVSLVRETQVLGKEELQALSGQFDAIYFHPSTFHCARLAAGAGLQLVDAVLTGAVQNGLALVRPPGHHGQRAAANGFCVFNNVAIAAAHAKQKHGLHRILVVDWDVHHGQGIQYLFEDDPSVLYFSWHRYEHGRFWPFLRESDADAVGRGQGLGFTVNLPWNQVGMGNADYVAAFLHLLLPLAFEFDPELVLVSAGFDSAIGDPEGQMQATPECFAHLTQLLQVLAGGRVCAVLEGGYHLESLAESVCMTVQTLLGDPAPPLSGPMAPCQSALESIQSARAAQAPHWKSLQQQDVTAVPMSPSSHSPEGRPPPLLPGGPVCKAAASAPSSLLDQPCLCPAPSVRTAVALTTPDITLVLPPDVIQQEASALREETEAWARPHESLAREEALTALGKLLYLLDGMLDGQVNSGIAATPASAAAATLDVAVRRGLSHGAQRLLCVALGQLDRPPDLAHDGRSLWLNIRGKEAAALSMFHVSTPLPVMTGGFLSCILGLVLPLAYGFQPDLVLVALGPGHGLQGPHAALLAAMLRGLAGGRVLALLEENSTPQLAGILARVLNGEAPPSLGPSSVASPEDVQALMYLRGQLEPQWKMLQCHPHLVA

Chain of human HDAC5 (Q9UQL6 656-1122 limits assumed): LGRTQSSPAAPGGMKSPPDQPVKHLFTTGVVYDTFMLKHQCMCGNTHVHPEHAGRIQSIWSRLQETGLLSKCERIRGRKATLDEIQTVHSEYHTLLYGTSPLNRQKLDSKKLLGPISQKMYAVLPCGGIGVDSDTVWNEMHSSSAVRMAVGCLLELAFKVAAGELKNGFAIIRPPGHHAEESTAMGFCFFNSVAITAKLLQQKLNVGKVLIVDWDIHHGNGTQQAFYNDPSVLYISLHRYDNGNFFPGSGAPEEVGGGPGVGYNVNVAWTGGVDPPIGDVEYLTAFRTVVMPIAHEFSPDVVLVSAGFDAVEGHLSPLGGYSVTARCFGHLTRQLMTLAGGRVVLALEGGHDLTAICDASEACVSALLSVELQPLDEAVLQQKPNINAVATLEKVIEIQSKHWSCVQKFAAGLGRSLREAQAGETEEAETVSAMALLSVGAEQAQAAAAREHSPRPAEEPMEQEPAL

Structure (SMILES): O=C(CCCSc1nc2ccccc2n1Cc1ccccc1)NO [Compound 10a, 4-((1-benzyl-1H-benzo[d]imidazol-2-yl)thio)-N-hydroxybutanamide]
- inhibition at 10 µM (human HDAC8): 56%
- acetylated α-tubulin level (Western blot) [1]: significant increase; also recorded: upregulated acetylated α-tubulin
- inhibition at 10 µM (human HDAC5): 4%
- inhibition at 10 µM (human HDAC10): 28%

Reference: article PMC6522981, “Structure-based design generated novel hydroxamic acid based preferential HDAC6 lead inhibitor with on-target cytotoxic activity against primary choroid plexus carcinoma” (Journal of Enzyme Inhibition and Medicinal Chemistry, 2019)
